In assay [1] the target is Somatostatin receptor type 3 (Homo sapiens, UniProt P32745).
For assay [2], the target named is Somatostatin receptor type 1 (Homo sapiens, UniProt P30872).
The target in assay [3] is Somatostatin receptor type 2 (Homo sapiens, UniProt P30874).
Assay [4] addresses Somatostatin receptor type 4 (Homo sapiens, UniProt P31391).

Bridge positions count the residues as written; N and C are the ends. Square brackets hold non-standard residues; d marks the D form. Peptide text beside a SMILES is read from it. * marks the point of attachment. NH(1-naphthylmethyl) = c1ccc2c(CN*)cccc2c1; 2Nal = N[C@@H](Cc1ccc2ccccc2c1)C(=O)O; Abu = CC[C@H](N)C(=O)O

Chain of Somatostatin receptor type 2 (P30874 whole entry): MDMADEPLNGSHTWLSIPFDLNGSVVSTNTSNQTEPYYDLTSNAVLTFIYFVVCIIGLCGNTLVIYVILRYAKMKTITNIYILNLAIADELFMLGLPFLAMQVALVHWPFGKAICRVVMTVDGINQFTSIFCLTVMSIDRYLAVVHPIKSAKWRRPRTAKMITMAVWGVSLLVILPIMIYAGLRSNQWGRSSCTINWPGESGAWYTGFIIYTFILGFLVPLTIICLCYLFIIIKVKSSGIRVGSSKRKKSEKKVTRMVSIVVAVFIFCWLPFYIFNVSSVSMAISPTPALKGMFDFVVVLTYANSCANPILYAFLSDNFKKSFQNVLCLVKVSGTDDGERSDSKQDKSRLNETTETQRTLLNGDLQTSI
Chain of Somatostatin receptor type 3 (P32745 whole entry): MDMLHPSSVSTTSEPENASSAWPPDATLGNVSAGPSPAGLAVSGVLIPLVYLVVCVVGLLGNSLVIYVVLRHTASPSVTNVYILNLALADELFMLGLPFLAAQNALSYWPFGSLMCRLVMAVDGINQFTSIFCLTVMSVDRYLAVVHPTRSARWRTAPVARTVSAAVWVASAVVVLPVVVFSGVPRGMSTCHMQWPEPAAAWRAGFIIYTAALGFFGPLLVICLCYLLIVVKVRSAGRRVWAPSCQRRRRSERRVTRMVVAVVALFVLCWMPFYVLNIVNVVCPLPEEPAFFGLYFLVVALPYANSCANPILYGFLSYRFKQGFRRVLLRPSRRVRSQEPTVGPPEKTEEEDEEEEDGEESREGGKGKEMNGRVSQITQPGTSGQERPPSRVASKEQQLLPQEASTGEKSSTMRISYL
Chain of Somatostatin receptor type 1 (P30872 whole entry): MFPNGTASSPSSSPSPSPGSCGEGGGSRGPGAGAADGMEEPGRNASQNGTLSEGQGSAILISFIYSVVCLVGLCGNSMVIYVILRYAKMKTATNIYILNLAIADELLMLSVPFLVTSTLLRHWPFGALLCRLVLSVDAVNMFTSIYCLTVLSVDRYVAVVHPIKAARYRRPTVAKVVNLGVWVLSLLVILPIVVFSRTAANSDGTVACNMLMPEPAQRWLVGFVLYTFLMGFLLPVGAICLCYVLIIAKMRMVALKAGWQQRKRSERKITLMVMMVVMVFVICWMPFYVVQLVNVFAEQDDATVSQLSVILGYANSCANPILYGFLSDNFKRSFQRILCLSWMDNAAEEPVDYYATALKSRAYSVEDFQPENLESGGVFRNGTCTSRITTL
Chain of Somatostatin receptor type 4 (P31391 whole entry): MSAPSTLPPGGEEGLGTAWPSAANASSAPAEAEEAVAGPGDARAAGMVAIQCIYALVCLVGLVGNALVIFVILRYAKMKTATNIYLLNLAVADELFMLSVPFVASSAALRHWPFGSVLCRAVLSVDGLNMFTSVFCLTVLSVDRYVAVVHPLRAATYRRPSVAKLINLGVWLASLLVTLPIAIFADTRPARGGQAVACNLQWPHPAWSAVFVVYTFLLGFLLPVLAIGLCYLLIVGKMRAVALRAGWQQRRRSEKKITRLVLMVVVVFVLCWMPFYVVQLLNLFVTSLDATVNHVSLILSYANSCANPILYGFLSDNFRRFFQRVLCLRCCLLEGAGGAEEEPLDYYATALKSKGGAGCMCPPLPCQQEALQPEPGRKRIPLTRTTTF

Regarding `NCCCCC1NC(=O)C(Cc2c[nH]c3ccccc23)NC(=O)C(Cc2ccc(O)cc2)NC(=O)C(NC(=O)C(N)Cc2ccccc2)CSSCC(C(=O)NCc2cccc3ccccc23)NC(=O)C(CO)NC1=O` (stereo unspecified) [NC4-28B] (H-FCYWKSC-{NH(1-naphthylmethyl)}; disulfide 2-7; configuration not given here), the inhibition constant Ki in assay [1] was 8.9 nM; in assay [2], 37.4 nM; in assay [3], 4.4 nM; in assay [4], 195 nM.

On to `C[C@@H](O)[C@H](NC(=O)[C@@H]1CSSC[C@H](NC(=O)[C@H](N)Cc2ccc3ccccc3c2)C(=O)N[C@@H](Cc2ccc(O)cc2)C(=O)N[C@H](Cc2c[nH]c3ccccc23)C(=O)N[C@@H](CCCCN)C(=O)N[C@@H]([C@@H](C)O)C(=O)N1)C(N)=O` [D-Nal-c[Cys-Tyr-D-Trp-Lys-Thr-Cys]-Thr-NH2], for which the Ki stood at 11.5 nM in assay [1], 41 nM in assay [2], 0.4 nM in assay [3] and 58 nM in assay [4].

For `CC(C)[C@@H]1NC(=O)[C@H](CCCCN)NC(=O)[C@@H](Cc2c[nH]c3ccccc23)NC(=O)[C@H](Cc2ccc(O)cc2)NC(=O)[C@@H](NC(=O)[C@H](N)Cc2ccccc2)CSSC[C@@H](C(=O)N[C@@H](Cc2c[nH]c3ccccc23)C(N)=O)NC1=O` [CAS_71306] (H-[dF]CY[dW]KVCW-NH2; disulfide 2-7), the inhibition constant Ki in assay [1] stood at 30.9 nM; in assay [2], 1000 nM; in assay [3] it was 5.4 nM; in assay [4], 45 nM.

Regarding `CC[C@@H]1NC(=O)[C@H](CCCCN)NC(=O)[C@@H](Cc2c[nH]c3ccccc23)NC(=O)[C@H](Cc2ccc(O)cc2)NC(=O)[C@@H](NC(=O)[C@H](N)Cc2ccccc2)CSSC[C@@H](C(=O)N[C@@H](Cc2ccc3ccccc3c2)C(N)=O)NC1=O` [D-Phe-Cys-Tyr-D-Trp-Lys-Abu-Cys-Nal-NH] (H-[dF]CY[dW]K[Abu]C[2Nal]-NH2; disulfide 2-7), the Ki in assay [1] was determined as 0.09 nM; in assay [2] it was 1000 nM; in assay [3], 0.024 nM; in assay [4], 1000 nM.
